In publication PMC10388204, “Different conformational dynamics of SNARE protein Ykt6 among yeast and mammals” (The Journal of Biological Chemistry, 2023):
Numbering of substitutions follows the chain as printed.

Legend:
Assay in all cases: isothermal titration calorimetry
Type in all cases: binding
yYkt6ΔC [1] = molecular target: T1, yYkt6ΔC (Saccharomyces cerevisiae, UniProt P36015, S176D); conditions: 50 mM Tris pH 8.0, 100 mM NaCl, 1 mM EDTA, 1 mM β-mercaptoethanol, 25 °C
T1 construct: gene YKT6; residues 1-195, C-terminal CCIIM motif removed; His6 tag; pET-M3C; E. coli BL21(DE3); not lipidated
T1 sequence (P36015 1-195 S176D): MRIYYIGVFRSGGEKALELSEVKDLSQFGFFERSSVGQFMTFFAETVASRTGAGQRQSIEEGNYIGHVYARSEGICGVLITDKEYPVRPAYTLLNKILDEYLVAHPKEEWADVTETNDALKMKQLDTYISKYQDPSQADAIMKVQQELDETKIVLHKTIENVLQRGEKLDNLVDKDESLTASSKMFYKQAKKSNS

yYkt6ΔC [2] = molecular target: T2, yYkt6ΔC (Saccharomyces cerevisiae, UniProt P36015, T46L/Q57A/L169A); conditions: 50 mM Tris pH 8.0, 100 mM NaCl, 1 mM EDTA, 1 mM β-mercaptoethanol, 25 °C
T2 construct: gene YKT6; residues 1-195, C-terminal CCIIM motif removed; His6 tag; pET-M3C; E. coli BL21(DE3); not lipidated
T2 sequence (P36015 1-195 T46L/Q57A/L169A): T1 sequence (P36015 1-195 S176D) with T46L, Q57A, L169A, D176S

yYkt6ΔC [3] = molecular target: T3, yYkt6ΔC (Saccharomyces cerevisiae, UniProt P36015, T46L/Q57A/L172A); conditions: 50 mM Tris pH 8.0, 100 mM NaCl, 1 mM EDTA, 1 mM β-mercaptoethanol, 25 °C
T3 construct: gene YKT6; residues 1-195, C-terminal CCIIM motif removed; His6 tag; pET-M3C; E. coli BL21(DE3); not lipidated
T3 sequence (P36015 1-195 T46L/Q57A/L172A): T1 sequence (P36015 1-195 S176D) with T46L, Q57A, L172A, D176S

yYkt6ΔC [4] = molecular target: T4, yYkt6ΔC (Saccharomyces cerevisiae, UniProt P36015, Q57A/T46L)
T4 construct: gene YKT6; residues 1-195, C-terminal CCIIM motif removed; His6 tag; pET-M3C; E. coli BL21(DE3); not lipidated
T4 sequence (P36015 1-195 T46L/Q57A): T1 sequence (P36015 1-195 S176D) with T46L, Q57A, D176S

rYkt6ΔC [5] = molecular target: T5, rYkt6ΔC (Rattus norvegicus, UniProt Q5EGY4)
T5 construct: gene Ykt6; residues 1-193, C-terminal CCAIM motif removed; His6 tag; pET-M3C; E. coli BL21(DE3); not lipidated
T5 sequence (Q5EGY4 1-193): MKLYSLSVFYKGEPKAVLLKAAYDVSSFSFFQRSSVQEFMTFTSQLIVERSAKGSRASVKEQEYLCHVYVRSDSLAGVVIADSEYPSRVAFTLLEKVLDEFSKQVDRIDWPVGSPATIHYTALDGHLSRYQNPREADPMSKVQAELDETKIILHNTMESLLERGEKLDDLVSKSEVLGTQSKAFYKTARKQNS

yYkt6ΔC [6] = molecular target: T6, yYkt6ΔC (Saccharomyces cerevisiae, UniProt P36015); conditions: 50 mM Tris pH 8.0, 100 mM NaCl, 1 mM EDTA, 1 mM β-mercaptoethanol, 25 °C
T6 construct: gene YKT6; residues 1-195, C-terminal CCIIM motif removed; His6 tag; pET-M3C; E. coli BL21(DE3); not lipidated
T6 sequence (P36015 1-195): T1 sequence (P36015 1-195 S176D) with D176S

rYkt6ΔC [7] = molecular target: T7, rYkt6ΔC (Rattus norvegicus, UniProt Q5EGY4, S174D); conditions: 50 mM Tris pH 8.0, 100 mM NaCl, 1 mM EDTA, 1 mM β-mercaptoethanol, 25 °C
T7 construct: gene Ykt6; residues 1-193, C-terminal CCAIM motif removed; His6 tag; pET-M3C; E. coli BL21(DE3); not lipidated
T7 sequence (Q5EGY4 1-193 S174D): T5 sequence (Q5EGY4 1-193) with S174D

Kd (yYkt6ΔC [4]): 33.3 µM | Kd (rYkt6ΔC [5]): 38.5 µM
Structure (SMILES): CCCCCCCCCCCCOP(=O)([O-])OCC[N+](C)(C)C [DPC, dodecylphosphocholine]
no binding (yYkt6ΔC [1]): the phospho-mutant yYkt6ΔC-S176D could not bind DPC either | no binding (yYkt6ΔC [2]): ITC measurements showed that these mutations disrupt the binding with DPC | no binding (yYkt6ΔC [3]): ITC measurements showed that these mutations disrupt the binding with DPC | no binding (yYkt6ΔC [6]): It turns out that DPC could not bind to yYkt6ΔC | no binding (rYkt6ΔC [7]): ITC experiments showed that DPC could not bind to rYkt6ΔC-S174D mutant
